Measurements published in PMC8070284, “Pharmacokinetic Characterization of LW6, a Novel Hypoxia-Inducible Factor-1α (HIF-1α) Inhibitor in Mice” (Molecules, 2021).
Read-outs that look alike come from different tables or passages of the source.

Tests used:
[1] = In vivo plasma pharmacokinetics after a single i.v. or p.o. dose in male ICR mice; design: species or system mouse; settings: for half-life / Vd: male, ICR; for half-life / Vd / MRT / clearance: iv; for Cmax / Tmax: po
Source text: The animal experiments conducted in this study were approved by the Institutional Animal Care and Use Committee of the Korea Research Institute of Bioscience and Biotechnology (Chung-buk, Korea; KRIBB-AEC-15005, 9 January 2015) and performed in compliance with the National Institutes of Health Guidelines for the care and use of laboratory animals and Korean national laws for ethical conduct in the care and use of animals. Specific pathogen-free (SPF) male ICR mice (8 weeks old) were purchased from Koatech Co. (Pyeongtaek, Kyonggi, Republic of Korea) and maintained in an SPF environment at a temperature of 22 ± 2 °C with a 12-h light/dark cycle and a relative humidity of 50 ± 10%. Food and water were given ad libitum. Animals were allowed to acclimatize to the testing facility for a week before being used in the study. Animal group for oral administration was fasted overnight before the study and fed again 4 h after dosing. Mice were given a single dose of test substance intravenously (i.v.) via tail vein injection or orally (p.o.) by a disposable syringe with an oral zonde. While LW6 was administered i.v. (5 mg/kg) or p.o. (5 mg/kg), APA was administered only i.v. (5 mg/kg). The solutions were prepared in dimethylacetamide/Cremophor EL/20% v/v 2-hydroxypropyl β-cyclodextrin in de-ionized water (1/1/3 v/v; i.v. or p.o. for LW6) or ethanol/20% v/v 2-hydroxypropyl β-cyclodextrin in de-ionized water (1/9 v/v; i.v. for APA) and administered at a dose volume of 5 mL/kg for both i.v. and p.o. Blood samples were collected via saphenous vein without the use of anesthesia as described in the earlier methodology study at the time points including 0, 0.25, 0.5, 0.75, 1, 2, 4, 6, 8, and 24 h after oral administration or 0, 0.083, 0.167, 0.25, 0.5, 1, 2, 4, 6, 8, and 24 h after intravenous administration. These samples were collected into Microvette® capillary tubes at predetermined time points. The blood samples were centrifuged under refrigeration at 12,000× g for 3 min and then kept frozen at −20 °C until analysis.
Plasma samples were prepared for analysis by the protein precipitation method. An aliquot of 15 µL from each plasma sample was transferred to a PCR tube (Axygen, Union City, CA, USA). Four volumes of acetonitrile containing the analytical internal standard (IS) 4-methylumbelliferone were added and the resulting mixture was vortexed for 10 min on a Multi-Tube vortexer (VWR International, West Chester, PA, USA), and sonicated for 30 min at room temperature. The tube was centrifuged at 12,000× g for 10 min and the supernatant was analyzed for the test substance. Sample analysis was performed by 3200 Q TRAP LC-MS/MS system (Applied Biosystems, Concord, ON, Canada) in a negative MRM mode. The analytical methods are described below.
Pharmacokinetic parameters were calculated by noncompartmental analysis of the plasma concentration-time profiles using Kinetica^TM 4.4.1 (Thermo Fisher Scientific, Inc., Woburn, MA, USA). The areas under the plasma concentration–time curves (AUC) were calculated by the linear-trapezoidal method. Total body clearance (CL) was calculated as follows: CL = Dose/AUC0–inf. Terminal elimination half-life (t1/2) was calculated by the following equation: t1/2 = 0.693/λz, where λz is the terminal disposition rate constant. Volume of distribution at steady state (Vss) was calculated as follows: Vss = CL × AUMC0–inf/AUC0–inf, where AUMC0–inf is the area under the first moment of the plasma concentration-time curve extrapolated to infinity. Oral bioavailability (F) was calculated using the following equation:(1) F=(AUCpo/Dosepo)/(AUCiv/Doseiv)×100
Fraction of dose converted to a systemically available metabolite was calculated by the following equation, where D is the dose of the parent, AUC(m) is the area under the curve of metabolite, and CL(m) is the systemic clearance of metabolite:(2) % of dose = AUC(m) ×CL(m)/D×parent mol. wt./metabolite mol. wt. ×100 […]

[2] = system: HCT116 xenograft; assay: HCT116 xenograft model study; type: in vivo; settings: data not shown
[3] = Metabolic stability in pooled mouse liver microsomes; type: in vitro ADME
Method: LW6 (1 µM) was incubated with pooled mouse liver microsomes (0.5 mg/mL) in the absence or presence of NADPH (1 mM) to determine its conversion to APA. LW6 was degraded slowly in the absence or presence of NADPH, with 63% or 65% remaining after 60 min microsomal incubations, respectively (Figure 3A). […] APA, following its formation, gradually disappeared from the microsomal incubation media only in the presence of NAPDH (Figure 3A). To determine whether APA was metabolized by cytochrome P450 (CYP450), APA (1 µM) also was incubated with pooled male mouse liver microsomes (0.5 mg/mL) in the absence or presence of NADPH (1 mM).
All incubations were conducted in triplicate at 37 °C in eight-well tube strips placed in an 8 × 12 rack (VWR, Emeryville, CA). Incubation mixtures consisted of mouse liver microsomes (0.5 mg protein/mL), NADPH (1 mM), and LW6 (1 µM) or APA (1 µM) in 0.1 M potassium phosphate buffer (pH 7.4). The final incubation volume was 160 µL and the final acetonitrile content was 1%. Samples were preincubated for 5 min at 37 °C before adding LW6 or APA to initiate the reaction. The reaction was terminated at 0, 5, 15, 30, and 60 min by the addition of 320 µL of ice-cold acetonitrile containing the internal standard. Incubation mixtures were then centrifuged at 910× g for 10 min and the supernatant was analyzed by the LC-ESI/MS/MS method described below for quantitation of LW6 and APA.

[4] = system: Caco-2 cells
[5] = in vitro; settings: human
[6] = Stability in phosphate buffer at physiological pH; type: physicochemical; settings: data not shown
[7] = system: HIF-1α; settings: cited from earlier work
[8] = Stability in mouse serum; type: in vitro ADME
Method: All incubations were conducted in triplicate at 37 °C in eight-well tube strips placed in an 8 × 12 rack (VWR, Emeryville, CA, USA) with 50 µL of mouse serum in each tube. LW6 (1 mM) dissolved in acetonitrile was added to a final concentration of […] (1% acetonitrile) to initiate the study. The reaction was terminated at 0, 1, 2, 4, and 6 h by adding 150 µL of ice-cold acetonitrile containing the internal standard. The eight-well cluster tube plate was centrifuged at 910× g for 10 min and the supernatant was analyzed by the LC-ESI/MS/MS method described below for quantitation of LW6 and APA.

[9] = mouse, plasma, 5 mg/kg, plasma, analyte = label, after single i.v. dose of LW6 5 mg/kg, male ICR mice, read-out: t1/2 (terminal) (converted)
[10] = mouse, plasma, analyte = label, after single i.v. dose of LW6 5 mg/kg, male ICR mice
[11] = mouse, plasma, analyte = label, after single p.o. dose of LW6 5 mg/kg, male ICR mice
[12] = mouse, plasma, analyte = label, after single p.o. dose of LW6 5 mg/kg, male ICR mice, n = 5
[13] = plasma, analyte = label, after single i.v. dose of LW6 5 mg/kg, male ICR mice
[14] = plasma, analyte = label, after single p.o. dose of LW6 5 mg/kg, male ICR mice
[15] = single i.v. dose of APA 5 mg/kg, male ICR mice, n = 5
[16] = Caco-2, pH 7.4, Typical apparent permeability coefficient (Papp) values

With `O=C(O)COc1ccc(C23CC4CC(CC(C4)C2)C3)cc1` [APA, (4-adamantan-1-yl-phenoxy)acetic acid] as the molecule, how does the half-life [1, 9] read?
Its half-life is 2.7 ± 0.2 h.

And the Vd ([1]; mouse, plasma, 5 mg/kg, single i.v. dose of APA 5 mg/kg, male ICR mice, n = 5, read-out: Vss)?
Its Vd is 0.4 ± 0.1 L/kg.

And the Vd ([1]; mouse, plasma, 5 mg/kg, single i.v. dose of APA 5 mg/kg, male ICR mice, n = 5, read-out: Vz)?
The Vd was 0.5 ± 0.2 L/kg.

And the half-life ([1]; mouse, plasma, 5 mg/kg, single i.v. dose of APA 5 mg/kg, male ICR mice, n = 5, read-out: t1/2 (converted))?
Its half-life is 2.4 ± 0.4 h.

What about the MRT [1, 10] of the same molecule?
Its MRT is 3.6 ± 0.2 h.

What about the clearance ([1]; mouse, plasma, single i.v. dose of APA 5 mg/kg, male ICR mice, n = 5, read-out: CL (converted)) of the same molecule?
The clearance was 1.67 mL/min/kg.

And the Cmax [1, 11]?
Its Cmax is 4240 ± 1260 ng/mL.

What about the Tmax [1, 12] of the same molecule?
Its Tmax is 0.7 ± 0.1 h.

What about the “AUC0–inf” value [1, 13] of the same molecule?
Its value is 17,759.9 ± 3194.1 ng/hr/mL.

What about the “AUC0–t” value [1, 13] of the same molecule?
The value was 17,731.4 ± 3190.5 ng/hr/mL.

What about the “AUC0–inf” value [1, 14] of the same molecule?
The value was 14,744.8 ± 5517.4 ng/hr/mL.

And the “AUC0–t” value [1, 14]?
The value was 14,615.3 ± 5507.8 ng/hr/mL.

What about the “AUC0–inf” value [1, 15] of the same molecule?
Its value is 39,624.7 ± 9502.30 ng/hr/mL.

What about the “AUC0–t” value [1, 15] of the same molecule?
Its value is 37,703.8 ± 10,162.9 ng/hr/mL.

What about the CL [1, 15] of the same molecule?
The CL was 1.7 ± 0 mL/min/kg.

And the “Tumor growth inhibition relative to the control group” value [2]?
The value was “up to 43.3%”.

What about the “APA depletion in mouse liver microsomes (in words)” value ([3]; APA 1 µM, 0.5 mg/mL microsomes, presence of NADPH (1 mM)) of the same molecule?
The value was “progressively decreased”.

For `COC(=O)c1ccc(O)c(NC(=O)COc2ccc(C34CC5CC(CC(C5)C3)C4)cc2)c1` [LW6], which “Permeability across Caco-2 cell monolayers (in words)” value [4] is on record?
The value was “moderately permeable”.

And the “Time beyond which plasma level was below the quantitation limit” value ([1]; after i.v. LW6 5 mg/kg)?
Its value is 4 h.

What about the “Time beyond which plasma level was below the quantitation limit” value ([1]; after p.o. LW6 5 mg/kg) of the same molecule?
The value was 1 h.

And the half-life [1, 9]?
The half-life was 0.6 ± 0.1 h.

What about the Vd ([1]; mouse, plasma, 5 mg/kg, single i.v. dose of LW6 5 mg/kg, male ICR mice, read-out: Vss (volume of distribution at steady state)) of the same molecule?
Its Vd is 0.5 ± 0.1 L/kg.

What about the MRT [1, 10] of the same molecule?
Its MRT is 0.3 h.

What about the clearance ([1]; mouse, plasma, single i.v. dose of LW6 5 mg/kg, male ICR mice, read-out: CL (systemic clearance) (converted)) of the same molecule?
The clearance was 28.3 mL/min/kg.

And the bioavailability ([1]; mouse, plasma, oral, LW6 5 mg/kg p.o. vs 5 mg/kg i.v., calculated using AUC0–t, male ICR mice, read-out: F (oral bioavailability))?
The bioavailability was 1.7 ± 1.8%.

What about the Cmax [1, 11] of the same molecule?
Its Cmax is 65.5 ± 47.3 ng/mL.

What about the Tmax [1, 12] of the same molecule?
Its Tmax is 0.3 ± 0.1 h.

What about the “Decrease of plasma exposure of LW6 when administered orally” value ([1]; oral vs intravenous, 5 mg/kg) of the same molecule?
The value was “about 60 fold”.

And the “AUC0–inf” value [1, 13]?
The value was 2957.1 ± 215.4 ng/h/mL.

And the “AUC0–t” value [1, 13]?
Its value is 2949.3 ± 218.4 ng/h/mL.

What about the “AUC0–t” value [1, 14] of the same molecule?
The value was 49.5 ± 52.5 ng/h/mL.

And the Vz ([1]; single i.v. dose of LW6 5 mg/kg, male ICR mice)?
Its Vz is 1.6 ± 0.3 Lkg.

What about the Papp at 120 min, 5 µM ([5]; Caco-2, pH 7.4, Papp) of the same molecule?
Its Papp at 120 min, 5 µM is 2.1 ± 0.4 ×10⁻⁶ cm/s.

What about the “Stability in phosphate buffer” value [6] of the same molecule?
The value was “stable”.

What about the “Accumulation of HIF-1α” value [7] of the same molecule?
Its value is “inhibited”.

What about the HIF-1α protein expression ([7]; without affecting HIF-1β expression, via regulation of VHL) of the same molecule?
Its HIF-1α protein expression is “decreased”.

What about the half-life at 5 µM ([8]; ICR, mouse serum, 5 µM, up to 6 h, read-out: t1/2 of degradation in serum) of the same molecule?
The half-life at 5 µM was > 6 h.

What about the “Conversion to APA in mouse serum (in words)” value ([8]; LW6 5 µM) of the same molecule?
Its value is “converted slowly to APA”.

What about the “LW6 remaining after 60 min microsomal incubation” value ([3]; 1 µM, 0.5 mg/mL microsomes, absence of NADPH) of the same molecule?
The value was 63%.

What about the “LW6 remaining after 60 min microsomal incubation” value ([3]; 1 µM, 0.5 mg/mL microsomes, presence of NADPH (1 mM)) of the same molecule?
The value was 65%.

And the “t1/2 of conversion to APA in liver microsomes” value ([3]; 1 µM, 0.5 mg/mL mouse liver microsomes)?
Its value is > 1 h.

And the half-life at 1 µM ([3]; mouse, pooled mouse liver microsomes, pH 7.4, as stated in abstract, read-out: t1/2 of degradation in mouse liver microsomes)?
The half-life at 1 µM was > 1 h.

With `COCCc1ccc(OCC(O)CNC(C)C)cc1` (stereo not shown) [Metoprolol, metoprolol] as the molecule, how does the Papp at 120 min, 5 µM ([5]; Caco-2, pH 7.4, Papp) read?
The Papp at 120 min, 5 µM was 35.3 ± 0.6 ×10⁻⁶ cm/s.

What about the Papp at 120 min, 5 µM [5, 16] of the same molecule?
The Papp at 120 min, 5 µM was > 25 ×10⁻⁶ cm/s.

With `CNC(=C[N+](=O)[O-])NCCSCc1ccc(CN(C)C)o1` [Ranitidine, ranitidine] as the molecule, how does the Papp at 120 min, 5 µM ([5]; Caco-2, pH 7.4, Papp) read?
The Papp at 120 min, 5 µM was 0.8 ×10⁻⁶ cm/s.

What about the Papp at 120 min, 5 µM [5, 16] of the same molecule?
Its Papp at 120 min, 5 µM is < 2 ×10⁻⁶ cm/s.
